Reference: patent publication US20210255193A1, “LYSINE REACTIVE PROBES AND USES THEREOF” (The Scripps Research Institute, priority 2017, published 2021)

How the values were obtained:
[1] = test system: lysines in the human breast cancer cell MDA-MB-231 proteome; experiment: competitive isoTOP-ABPP, proteome-wide fragment reactivity; assay type: binding; settings: for proteome-wide reactivity: fragments 50-100 μM; for lysines reacted that showed negligible cross-reactivity with activated esters: human cell proteomes
Procedure: In vitro covalent fragment treatment for isoTOP-ABPP. All compounds were made up as solutions in DMSO (100×) and were used at a final concentration of 50 μM for activated esters and 100 μM for guanidinylating agents. For each profiling sample, 0.5 ml of lysate was treated with 5 μl of the 100× compound stock solution or 5 μl of DMSO. Samples were treated with activated esters for
STP-alkyne labeling and click chemistry. For concentration-dependent reactivity measurements by isoTOP-ABPP, 0.5 ml proteome aliquots were treated at ambient temperature with 1 mM STP-alkyne 1 (5 μl of 100 mM stock in DMSO) and 0.1 mM STP alkyne 1 (5 μl of 10 mM stock in DMSO), respectively. For competitive isoTOP-ABPP, after in vitro fragment treatment (detailed above), the samples were labeled for 1 h at ambient temperature with 0.1 mM STP-alkyne 1 (5 μl of 10 mM stock in DMSO). Samples were conjugated by copper-mediated azide-alkyne cycloaddition (CuAAC) to either the light (1 mM STP-alkyne or fragment treated) or heavy (0.1 mM STP-alkyne or DMSO treated) TEV tags (10 μl of 5 mM stocks in DMSO, final concentration=100 μM) using tris(2-carboxyethyl)phosphine hydrochloride
R value calculation and processing. The ratios of light and heavy MS1 peaks for each unique peptide were quantified with a CIMAGE software using default parameters (3 MS1 acquisitions per peak and signal to noise threshold set to 2.5). For reactivity measurements by isoTOP-ABPP, the R value was calculated from the ratio of MS1 peak areas, comparing the 1 mM STP alkyne sample (light TEV tag) with the 0.1 mM STP alkyne sample (heavy TEV tag). For competitive isoTOP-ABPP, the R value was calculated from the ratio of MS1 peak areas, comparing the DMSO treated sample (heavy TEV tag) with the compound treated sample (light TEV tag). […] Ratios for unique peptide entries are calculated for each experiment; overlapping peptides with the same modified lysine (for example, different charge states, MudPIT chromatographic steps or tryptic termini) are grouped together and the median ratio is reported as the final ratio (R). The peptide ratios reported by CIMAGE were further filtered to ensure the removal or correction of low-quality ratios in each individual data set. The quality filters applied were the following: removal of half tryptic peptides; for ratios with high standard deviations from the median (90% of the median or above) the lowest ratio was taken instead of the median; removal of peptides with R=20 and only a single MS2 event triggered during the elution of the parent ion; manual annotation of all the peptides with ratios of 20, removing any peptides with low quality elution profiles that remained after the previous curation steps (only done for competitive isoTOP-ABPP).
Cross-data processing for fragment screening. For compound treated samples, biological replicates of the same condition were averaged, if the standard deviation was below 60% of the mean; otherwise, for lysines with at least one R value <4 for a particular compound, the lowest value of the ratio set was taken. For lysines, where all R values for a particular compound were ≥4, the average was reported. For peptides containing several possible modified lysines, the lysine with the highest number of quantification events was used for analysis and the remaining, redundant peptides were reported as alternative modification sites. Peptides included in the aggregate dataset (those used for further bioinformatics and statistical analyses) were required to have been quantified in 2 experiments for competitive isoTOP-ABPP. Lysines were categorized as liganded, if they had at least one ratio R≥4 (hit fragments). For liganded lysines with R=20 for all liganding events, lysines were required to have been quantified with R=20 in two separate experiments and were further required to have been quantified with R<20 in one additional experiment. […]

[2] = biological target: T1, EEF1G Elongation factor 1-gamma (Homo sapiens, UniProt P26641); experiment: competitive isoTOP-ABPP; assay type: binding; settings: for R value (DMSO/fragment) for probe 1 labeling: P26641_K227; for R value (DMSO/fragment) for probe 1 labeling / isoTOP-ABPP reactivity ratio at lysine P26641_K227: 50 uM, 231 sol, in vitro
T1 construct: isoTOP-ABPP experiments performed in cell lysates (in vitro); endogenous in cells; host or cells: soluble proteome of human cancer cell lines (MDA-MB-231; Ramos and Jurkat also prepared)
T1 sequence (P26641 whole entry, the tested form may be a part): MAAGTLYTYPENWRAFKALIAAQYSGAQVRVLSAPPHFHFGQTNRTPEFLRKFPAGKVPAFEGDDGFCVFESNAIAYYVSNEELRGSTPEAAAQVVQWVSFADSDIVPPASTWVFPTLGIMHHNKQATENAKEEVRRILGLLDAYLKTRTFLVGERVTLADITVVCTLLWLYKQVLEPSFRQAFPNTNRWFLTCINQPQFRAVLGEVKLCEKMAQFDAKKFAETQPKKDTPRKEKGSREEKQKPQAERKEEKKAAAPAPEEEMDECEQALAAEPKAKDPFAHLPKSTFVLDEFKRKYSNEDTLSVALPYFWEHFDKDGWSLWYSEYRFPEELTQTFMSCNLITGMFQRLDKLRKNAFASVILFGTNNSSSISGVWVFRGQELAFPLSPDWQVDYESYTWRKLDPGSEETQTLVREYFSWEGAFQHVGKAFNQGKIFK
How it was run: (§1)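 Cell lysate treated in vitro with fragments (50 μM activated esters, 100 μM guanidinylating agents) or DMSO, labelled 1 h at ambient temperature with 0.1 mM STP-alkyne, CuAAC-tagged with light/heavy TEV tags, analysed by MS. R = DMSO/compound MS1 peak-area ratio; lysines with R≥4 called liganded.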

[3] = biological target: T2, ATP6V1F V-type proton ATPase subunit F (Homo sapiens, UniProt Q16864); experiment: competitive isoTOP-ABPP; assay type: binding; settings: for R value (DMSO/fragment) for probe 1 labeling: Q16864_K6; for R value (DMSO/fragment) for probe 1 labeling / isoTOP-ABPP reactivity ratio at lysine Q16864_K6: 50 uM, 231 sol, in vitro; for isoTOP-ABPP ratio, lysine Q16864_K6: 100 uM_231_sol_in vitro
T2 construct: isoTOP-ABPP experiments performed in cell lysates (in vitro); endogenous in cells; host or cells: soluble proteome of human cancer cell lines (MDA-MB-231; Ramos and Jurkat also prepared)
T2 sequence (Q16864 whole entry, the tested form may be a part): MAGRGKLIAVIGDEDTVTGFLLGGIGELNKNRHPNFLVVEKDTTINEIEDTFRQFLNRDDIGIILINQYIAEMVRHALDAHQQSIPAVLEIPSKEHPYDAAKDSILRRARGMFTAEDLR
How it was run: as §1

[4] = biological target: T3, IFIT3 Interferon-induced protein with tetratricopeptide (Homo sapiens, UniProt O14879); experiment: competitive isoTOP-ABPP; assay type: binding; settings: for R value (DMSO/fragment) for probe 1 labeling: O14879_K148
T3 construct: isoTOP-ABPP experiments performed in cell lysates (in vitro); endogenous in cells; host or cells: MDA-MB-231 soluble lysate
T3 sequence (O14879 1-490): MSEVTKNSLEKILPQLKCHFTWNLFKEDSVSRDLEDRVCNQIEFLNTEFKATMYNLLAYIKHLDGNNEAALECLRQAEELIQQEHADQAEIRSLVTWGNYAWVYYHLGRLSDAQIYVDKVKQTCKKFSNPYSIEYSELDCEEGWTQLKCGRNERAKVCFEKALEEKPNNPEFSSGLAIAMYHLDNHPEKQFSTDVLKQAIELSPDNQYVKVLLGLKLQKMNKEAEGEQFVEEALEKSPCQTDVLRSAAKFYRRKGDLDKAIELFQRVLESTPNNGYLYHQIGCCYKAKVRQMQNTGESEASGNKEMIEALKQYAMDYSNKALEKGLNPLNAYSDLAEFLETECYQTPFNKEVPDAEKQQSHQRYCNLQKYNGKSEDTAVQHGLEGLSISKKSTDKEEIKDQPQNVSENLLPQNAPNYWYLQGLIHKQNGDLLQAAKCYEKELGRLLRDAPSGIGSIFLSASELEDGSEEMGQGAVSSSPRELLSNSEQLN
How it was run: as §1

[5] = biological target: T4, TARDBP TAR DNA-binding protein 43 (Homo sapiens, UniProt Q13148); experiment: competitive isoTOP-ABPP; settings: for isoTOP-ABPP ratio, lysine Q13148_K114: 100 uM_231_sol_in vitro
T4 construct: isoTOP-ABPP experiments performed in cell lysates (in vitro); endogenous in cells; host or cells: soluble proteome of human cancer cell lines (MDA-MB-231, Ramos, Jurkat)
T4 sequence (Q13148 whole entry): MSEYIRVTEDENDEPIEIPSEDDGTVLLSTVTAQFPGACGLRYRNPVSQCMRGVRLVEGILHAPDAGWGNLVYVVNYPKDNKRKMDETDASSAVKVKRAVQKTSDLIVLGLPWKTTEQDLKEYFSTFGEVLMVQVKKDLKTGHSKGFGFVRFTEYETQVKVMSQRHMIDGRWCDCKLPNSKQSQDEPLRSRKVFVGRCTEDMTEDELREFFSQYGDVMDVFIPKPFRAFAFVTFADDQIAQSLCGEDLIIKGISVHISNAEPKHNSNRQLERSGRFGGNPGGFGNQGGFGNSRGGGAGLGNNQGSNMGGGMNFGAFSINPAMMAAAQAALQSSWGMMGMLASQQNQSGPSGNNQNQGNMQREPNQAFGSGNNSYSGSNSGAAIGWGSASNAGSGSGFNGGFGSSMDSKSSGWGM
How it was run: as §1

Compound: O=C(Oc1c(F)c(F)c(F)c(F)c1F)C(c1ccccc1)c1ccccc1 [fragment 20, Pentafluorophenyl 2,2-diphenylacetate]
- proteome-wide reactivity [1]: limited reactivity across the proteome
- R value (DMSO/fragment) for probe 1 labeling [2]: 0.9
- R value (DMSO/fragment) for probe 1 labeling [3]: 1.1
- R value (DMSO/fragment) for probe 1 labeling ([4]; 50 uM, 231 sol, in vitro): 0.7

Compound: O=C(Oc1c(F)c(F)c(F)c(F)c1F)c1cc(C(F)(F)F)cc(C(F)(F)F)c1 [fragment 21, Pentafluorophenyl 3,5-bis(trifluoromethyl)benzoate]
- proteome-wide reactivity [1]: low proteome-wide reactivity
- R value (DMSO/fragment) for probe 1 labeling [2]: 0.8
- R value (DMSO/fragment) for probe 1 labeling [3]: 1.1
- R value (DMSO/fragment) for probe 1 labeling ([4]; 50 uM, 231 sol, in vitro): 1.4
- R value (DMSO/fragment) for probe 1 labeling ([5]; Q13148_K114, 50 uM, 231 sol, in vitro): 0.9

Compound: O=C(CCc1cn(-c2ccccc2)nc1-c1ccccc1)Oc1ccc([N+](=O)[O-])cc1[N+](=O)[O-] [fragment 29, 2,4-Dinitrophenyl 3-(1,3-diphenyl-1H-pyrazol-4-yl)propanoate]
- proteome-wide reactivity [1]: much greater proteome-wide reactivity
- isoTOP-ABPP reactivity ratio at lysine P26641_K227 [2]: 0.7
- isoTOP-ABPP reactivity ratio at lysine Q16864_K6 [3]: 0.8
- isoTOP-ABPP reactivity ratio at lysine O14879_K148 ([4]; 50 uM, 231 sol, in vitro): 4.1
- isoTOP-ABPP reactivity ratio at lysine Q13148_K114 ([5]; 50 uM, 231 sol, in vitro): 1.1

Compound: O=C(Oc1ccc([N+](=O)[O-])cc1[N+](=O)[O-])C(c1ccccc1)c1ccccc1 [fragment 30, 2,4-Dinitrophenyl 2,2-diphenylacetate]
- proteome-wide reactivity [1]: much greater proteome-wide reactivity
- isoTOP-ABPP reactivity ratio at lysine P26641_K227 [2]: 0.9
- isoTOP-ABPP reactivity ratio at lysine Q16864_K6 [3]: 20.0

Compound: COC(=O)NC(=NC(=O)OCC1c2ccccc2-c2ccccc21)n1cccn1 [fragment 49, N-Methoxycarbonyl-N′-9-fluorenylmethoxycarbonyl-pyrazole-1-carboxamidine]
- lysines reacted that showed negligible cross-reactivity with activated esters [1]: 15
- isoTOP-ABPP ratio, lysine Q16864_K6 [3]: 1.3
- isoTOP-ABPP ratio, lysine Q13148_K114 [5]: 20.0

Compound: CC(C)(C)OC(=O)N=C(NC(=O)OC(C)(C)C)n1cccn1 [fragment 50, reference compound]
- lysines reacted that showed negligible cross-reactivity with activated esters [1]: 15
- isoTOP-ABPP ratio, lysine P26641_K227 ([2]; 100 uM_231_sol_in vitro): 1.2
- isoTOP-ABPP ratio, lysine Q16864_K6 [3]: 1.4
- isoTOP-ABPP ratio, lysine O14879_K148 ([4]; 100 uM_231_sol_in vitro): 1.4
- isoTOP-ABPP ratio, lysine Q13148_K114 [5]: 1.2

Compound: NC(=O)c1cc(C(F)(F)F)cc(C(F)(F)F)c1 [fragment 51, reference compound]
- lysine reactivity ([1]; competition with probe 1 (100 μM)): No lysine reactivity was observed
- isoTOP-ABPP ratio, lysine P26641_K227 ([2]; 50 uM_231_sol_in vitro): 0.9
